The source of these data is patent EP0022634A1, “Acylated indole derivatives, processes for their preparation and pharmaceutical compositions and drugs comprising them” (TEIJIN LIMITED, priority 1979, dated 1981).

The test system of series [1] is platelet aggregation. Description: in vitro platelet aggregation inhibiting activity (sodium arachidonate as aggregating agent). The format is cell-based. Particulars: Cavia porcellus, Platelet, guinea pigs PRP, final concentration 0.1 millimole, minimum final concentration whose inhibiting rate exceeded 50 %, read-out: IC50. The protocol:
The platelet aggregation inhibiting activities in vitro of test drugs including the acylated indole derivatives of this invention were assayed using guinea pigs PRP.
As an aggregating agent, sodium arachidonate having a final concentration of 0.1 millimole was used.
The citrated blood was centrifuged at 1000 rpm for 10 minutes at room temperature, and the supernatant liquid (PRP) was separated.
The resulting PRP was stored at room temperature, and used as early as possible. PRP stored for more than 4 hours was not used.
A compound having a free carboxylic acid as a residue, such as Indomethacin and Ibprofen, was dissolved in O.lM NaHC03 to provide a sodium salt solution having a concentration of 10 mg/ml. The solution was similarly diluted with physiological saline to prepare a solution of a test drug.
The solution was diluted with physiological saline to form a 1mM solution which was used in the test.
50 µℓ of physiological saline and 50 µℓ of the aggregating agent solution were added to 400 µℓ of PRP which had been warmed in a cuvette at 37°C in an aggregometer to aggregate the platelet. The aggregation curve was recorded for 3 minutes by an aggregometer (a product of Bryston Company). The maximum degree of aggregation in this platelet aggregation was defined as the maximum degree of aggregation in the blank.
Then, 50 µℓ of a 1mM solution of sodium arachidonate was added, and the platelet aggregation curve was recorded in the same way as in (1) above. From the curve, the maximum degree of aggregation was calculated, and the inhibiting rate was calculated in accordance with the following equation. Maximum degree of aggregation Inhibiting 100 - in the Ibprofen-added system 100 rate (%) Maximum degree of aggregation in the blank
If these inhibiting rates are not attained, the concentration of the solution of sodium arachidonate is not suitable, and therefore, its concentration should be re-adjusted, and the test shall be performed again.
50 µℓ of the test compound solution was added to 400 µℓ of PRP, and the mixture was pre-incubated in the same way as in(2) above. Then, 50 µℓ of the solution of sodium arachidonate having its concentration adjusted in (2) was added, and the aggregation curve was recorded for 3 minutes. The maximum degree of aggregation of platelet within this period was measured, and the rate of inhibition was calculated from the following equation. […] Maximum degree of aggregation Inhibiting _ 100 - in the drug-added system x 100 rate (%) Maximum degree of aggregation in the blank
For details of the in vitro platelet aggregation inhibiting test, see H. M. Davis, J. Phyllis, K. Paul and W. Terry: Thromb. […] Haemos.

The subject of series [2] is platelet aggregation. Description: extra vivo platelet aggregation inhibiting activity after oral administration, collagen as aggregating agent. Type of series: in vivo, guinea pigs. The settings on record: Cavia porcellus, po. The protocol: The collagent floating solution made by Hormone Company of west Germany was diluted with physiological saline to a concentration of 100 µg/ml for use in the test.
(§1) The platelet aggregation inhibiting activities extra vivo of drugs sampled at random were examined using guinea pigs.
(§2) The drugs were used dissolved in propylene glycol to a concentration of 1 mg/ml (when the dosage was 1 mg/kg), 10 mg/ml (when the dosage was 10 mg/kg), and 30 mg/ml (when the dosage was 30 mg/kg). The drugs were administered orally to male Hartley guinea pigs (three in a group) having a body weight of 300 to 350 g. Propylene glycol was administered to a control group.
(§3) One hour, or 4 hours after the administration, citrated blood was taken out from the subject by cardiac puncture.
(§4) The guinea pigs were caused to fast overnight before use.
(§5) The inhibiting rate of the test drugs was measured as follows: • 450 µℓ of PRP was put into a cuvette of an aggregometer, and then 50 µℓ of the aggregating agent was added. The aggregation curve was recorded for 3 minutes, and the maximum degree of aggregation was measured. As a blank, the maximum degree of aggregation of PRP of the group of guinea pigs to which propylene glycol had been administered was measured. The rate of inhibition was calculated from the following equation. [formula]
(§6) As the aggregating agent, 0.03 mM (final concentration sodium arachidonate and 5 µg/ml (final concentration) collagen floating solution were used.
For details of the extra vivo platelet aggregation inhibiting test, see Davis. H. M., Phyllis, J., Paul, K and Terry, W.: Thromb. Res. 11, 217-226 (1977) and Anderson R. E. and Foulks J. G.: Thromb. Haemos. 36, 343-359 (1976).

Series [3] relates to platelet aggregation. Description: extra vivo platelet aggregation inhibiting activity after oral administration, sodium arachidonate as aggregating agent. Type of series: in vivo, guinea pigs. Particulars: Cavia porcellus, 0.03 mM sodium arachidonate; for inhibition at 1 mg/kg: oral dosage 1 mg/kg; for inhibition at 10 mg/kg: oral dosage 10 mg/kg. On the procedure: as §1, §2, §3, §4, §5, §6
For details of the extra vivo platelet aggregation inhibiting test, see Davis. H. M., Phyllis, J., Paul, K and Terry, W.: Thromb. […] Haemos.

In series [4] the test system is mucous membrane of the stomach. Put plainly: Action of causing trouble to the mucous membrane of the stomach (ulcer index). The settings on record: for Incidence / Ulcer Index (mm ± S.E.): fasted rats. Type of series: in vivo, Male S.D. rats. On the procedure:
Male S.D. rats (7 weeks old) were caused to fact for 24 hours while allowing them to drink water freely. A test compound dissolved in propylene glycol was orally administered to these rats, and these rats were kept while causing them to fast. Then, the rats were knocked out to death, and lesions generated in the stomach were measured in the following manner.
Ten minutes before killing the rats, 1% Evans blue was intravenously injected to the rats in a dose of 0.5 ml/rat to stain their body. Then, the rats were knocked out to death, and the stomack was taken out from each rat. 12 ml of 1% formalin was injected into the stomack to inflate it. The stomach was then dipped for more than 10 minutes in a 1% formalin solution, and fixed. After fixing, the stomach was incised along the glandular portion, and the length of a dye-leaked portion that occurred in the stomach was measured under a solid microscope, and defined as the ulcer index (mm).
For details of the test on the action of causing trouble to the mucous membrane of the stomach, see E. Adami, E. Marazzi-Uberti, and C. Turba, Arch, int. Pharmacadyn., 147, 113 (1964).

For series [5], the system named is platelet aggregation. Description: in vitro platelet aggregation inhibiting activity (sodium arachidonate as aggregating agent). The format is cell-based, guinea pigs. The settings on record: general statement on investigations of the present inventors; test not specified.
Setting [6] is: 1 h, read-out: Rate of inhibition of platelet aggregation, Collagen, After 1 hour.
Where [7] appears, read: 4 h, read-out: Rate of inhibition of platelet aggregation, Collagen, After 4 hours.
Setting [8] is: blood taken 1 hour after administration, read-out: Rate of inhibition of platelet aggregation, Sodium arachidonate, After 1 hour.
The mark [9] stands for this setting: blood taken 4 hours after administration, read-out: Rate of inhibition of platelet aggregation, Sodium arachidonate, After 4 hours.
Setting [10] is: oral dosage 100 mg/kg in propylene glycol.
Setting [11] is: oral dosage 200 mg/kg in propylene glycol.
Setting [12] is: oral dosage 400 mg/kg in propylene glycol.

In brackets after ≈: the same amount, converted by molar mass.

As to `COCC(C)n1c(C)c(C(=O)c2ccccc2)c2ccccc21` (centres unmarked) [(300), 3-Benzoyl-1-(1-methoxy-2-propyl)-2-methylindole], in series [1], the half-inhibitory concentration (IC50) is 0.055 µg/mL (≈ 0.179 µM). For the same molecule, the inhibition at 1 mg/kg in series [2] (setting [6]) came out at 100%; in series [2] (setting [7]) it was 71.4%; in series [3] (setting [8]) it was 51.3%; in series [3] (setting [9]), 67.5%. For the same molecule, the Incidence in series [4] (setting [10]) came out at 40%; in series [4] (setting [11]), 55.6%; in series [4] (setting [12]), 66.7%. Besides, the “Ulcer Index (mm ± S.E.)” value in series [4] (setting [10]) came to 1.1 ± 0.5 mm; in series [4] (setting [11]), 1.2 ± 0.3 mm; in series [4] (setting [12]), 1.4 ± 0.5 mm.
Turning to `CCOCC(C)n1c(C)c(C(=O)c2ccccc2)c2ccccc21` (centres unmarked) [(302), 3-Benzoyl-1-(1-ethoxy-2-propyl)-2-methylindole], in series [1], the IC50 is 0.055 µg/mL (≈ 0.171 µM). For the same molecule, the inhibition at 10 mg/kg in series [3] (setting [8]) and in series [3] (setting [9]) was 100% each time. In addition, the values for the Incidence in series [4] (setting [11]) and in series [4] (setting [12]) were 33.3% and 50%, respectively. Besides, the “Ulcer Index (mm ± S.E.)” value amounted to 0.3 ± 0.2 mm in series [4] (setting [11]) and 0.9 ± 0.3 mm in series [4] (setting [12]).
As for `CCOCCC(C)n1c(C)c(C(=O)c2ccccc2)c2ccccc21` (centres unmarked) [(307), 3-Benzoyl-1-(4-ethoxy-2-butyl)-2-methylindole], the IC50 in series [1] amounted to 0.25 µg/mL (≈ 0.745 µM). The inhibition at 10 mg/kg in series [2] (setting [6]) was determined as 98.3%; in series [2] (setting [7]) it was 100%; in series [3] (setting [8]) it was 100%; in series [3] (setting [9]) it was 100%.
Regarding `CCC(COC)n1c(C)c(C(=O)c2ccccc2)c2ccccc21` (centres unmarked) [(311), 3-Benzoyl-1-(1-methoxy-2-butyl)-2-methylindole], in series [1], the IC50 turned out to be 0.25 µg/mL (≈ 0.778 µM). The inhibition at 10 mg/kg in series [2] (setting [6]) was found to be 100%; in series [2] (setting [7]), 81.1%; in series [3] (setting [8]) it was 68.8%; in series [3] (setting [9]) it was 100%.
Turning to `CCOCC(CC)n1c(C)c(C(=O)c2ccccc2)c2ccccc21` (centres unmarked) [(312), 3-Benzoyl-1-(1-ethoxy-2-butyl)-2-methylindole], in series [1], the IC50 came out at 0.25 µg/mL (≈ 0.745 µM). Also, the inhibition at 10 mg/kg in series [2] (setting [6]), in series [2] (setting [7]), in series [3] (setting [8]) and in series [3] (setting [9]) was 100% in each case.
As for `COCC(C)n1c(C)c(C(=O)c2ccccc2)c2cc(OC)ccc21` (centres unmarked) [(318), 3-Benzoyl-5-methoxy-1-(1-methoxy-2-propyl)-2-methylindole], the IC50 in series [1] worked out at 0.75 µg/mL (≈ 2.22 µM). The inhibition at 10 mg/kg in series [2] (setting [6]) was determined as 97.7%; in series [2] (setting [7]), 0.5%; in series [3] (setting [8]), 100%; in series [3] (setting [9]), 14%.
On to `CCSCC(C)n1c(C)c(C(=O)c2ccccc2)c2ccccc21` (centres unmarked) [(400), 3-Benzoyl-1-(1-ethylthio-2-propyl)-2-methylindole], for which, in series [1], the IC50 is 0.5 µg/mL (≈ 1.48 µM). For the same molecule, the inhibition at 10 mg/kg in series [2] (setting [6]) amounted to 100%; in series [2] (setting [7]), 100%; in series [3] (setting [8]), 100%; in series [3] (setting [9]), 67.4%.
As for `Cc1c(C(=O)c2ccccc2)c2ccccc2n1C(C)CSc1ccccc1` (centres unmarked) [(401), 3-Benzoyl-2-methyl-1-(1-phenylthio-2-propyl)-indole], the IC50 in series [1] was determined as 0.25 µg/mL (≈ 0.648 µM). The inhibition at 10 mg/kg in series [2] (setting [6]), in series [2] (setting [7]), in series [3] (setting [8]) and in series [3] (setting [9]) was 100% throughout.
`Cc1c(C(=O)c2ccccc2)c2ccccc2n1C(C)CSc1ccccn1` (centres unmarked) [(405), 3-Benzoyl-2 methyl-1-[1-(2-pyridylthio)-2-propyl]indole]: in series [1], the IC50 was 0.5 µg/mL (≈ 1.29 µM). In addition, the inhibition at 10 mg/kg in series [2] (setting [6]), in series [2] (setting [7]), in series [3] (setting [8]) and in series [3] (setting [9]) was 100% each time.
Consider `CCSCCC(C)n1c(C)c(C(=O)c2ccccc2)c2ccccc21` (centres unmarked) [(409), 3-Benzoyl-1-(4-ethylthio-2-butyl)-2-methylindole], for which, in series [1], the half-maximal inhibitory concentration (IC50) was 0.25 µg/mL (≈ 0.711 µM). Further, the inhibition at 10 mg/kg amounted to 100% in series [2] (setting [6]), 100% in series [2] (setting [7]), 100% in series [3] (setting [8]) and 48.8% in series [3] (setting [9]).
For the molecule `CCCCC(C)n1c(C)c(C(=O)c2ccccc2)c2ccccc21` (centres unmarked) [(705), 3-Benzoyl-1-(2-hexyl)-2-methylindole], in series [4] (setting [12]), the Incidence is given as 0% and the “Ulcer Index (mm ± S.E.)” value is listed as 0 mm.
As for `CCCCCC(C)n1c(C)c(C(=O)c2ccccc2)c2ccccc21` (stereo not drawn) [(706), 3-Benzoyl-l-(2-heptyl)-2-methylindole], in series [4] (setting [12]), the Incidence was determined as 16.7% and the “Ulcer Index (mm ± S.E.)” value stood at 0.1 mm.
As for `CC(=O)C(C)n1c(C)c(C(=O)c2ccccc2)c2ccccc21` (stereo not drawn) [(800), 3-Benzoyl-2-methyl-l-(3-oxo-2-butyl)indole], in series [1], the IC50 lay in the range of 0.05 to 0.1 µg/mL (≈ 0.164 to 0.327 µM). The inhibition at 10 mg/kg in series [2] (setting [6]) turned out to be 100%; in series [2] (setting [7]), 48.4%; in series [3] (setting [8]), 100%; in series [3] (setting [9]), 66.7%.
In the case of `CC(C)c1[nH]c2ccccc2c1C(=O)c1cccnc1` [Comparison 3, reference compound], in series [1], the IC50 was determined as 0.075 µg/mL (≈ 0.284 µM). In series [4] (setting [10]), the Incidence was found to be 66.7% and the “Ulcer Index (mm ± S.E.)” value is 1.5 ± 0.6 mm. For the same molecule, in series [4] (setting [12]), the Incidence worked out at 100% and the “Ulcer Index (mm ± S.E.)” value turned out to be 7.9 ± 2.3 mm.
As to `CC(C)c1[nH]c2ccccc2c1C(=O)c1cccnc1` [drawing 4, reference compound], in series [5], the “action of inhibiting platelet aggregation” value is given as “has an action of inhibiting platelet aggregation”. The “tendency to induce ulcer formation” value in series [4] (general statement on investigations of the present inventors, test not specified) is listed as “unnegligible tendency to induce ulcer formation”.

The IC50 is the concentration that gives 50% inhibition. For orientation: inhibition means the share of the control response that was lost under treatment.
